Source: patent US20190203254A1, “CORTICAL NEURON CELL MODEL OF ALZHEIMER'S DISEASE BASED ON BMI1 DEFICIENCY, AND USES THEREOF” (9636137 Canada Inc., priority 2016, published 2019)

Tests used:
shBMI1 neurons [1] = assay: Ab42 levels by ELISA in shBMI1 neurons treated with BSI (FIG. 3H); type: cell-based, human; details: BSI vs vehicle control
Text: (§1) FIG. 3 is a panel with pictures and graphs illustrating that BMI1 deficiency in neurons results in p-Tau and amyloid accumulation. FIG. 3A: p-Tau (PHF1) accumulation in shBMI1 neurons but not in shCTL neurons (day 14). Scale bar: 40 mm. FIG. 3B: p-Tau (PHF1) accumulation in broken axonal segments of glutamatergic shBMl1 neurons (arrows), and co-localization of p-Tau with vGLUT1 in axonal swellings (arrows in the inset). Scale bar: 40 mm. FIG. 3C: Quantification of PHF1-positive neurons and of p-Tau foci/axon in shCTL (n=3) and shBMI1 (n=3) cultures. All values are mean±SEM. (*) P<0.05; (**) P<0.01 by Student's unpaired t-test. FIG. 3D: Confocal immunofluorescence for the apoptosis marker activated caspase-3 in shCTL and shBMl1 cultures. Scale bar: 40 mm. FIG. 3E: Quantification of activated caspase-3 positive cells in GABA+ and GABA− neuronal populations. All values are mean±SEM. (*) P<0.05 by Student's unpaired t-test. FIG. 3F: Amyloid accumulation in shBMl1 neurons as compared to shCTL neurons using the MOAB2 or PA3 antibodies. Scale bars: 40 mm. FIG. 3G: Confocal immunofluorescence for oligomeric amyloid (NU1) and Ab42 (PA3) of shCTL and shBMI1 neurons treated with beta-secretase inhibitor (BSI) or vehicle control. FIG. 3H: Intracellular and extracellular Ab42 levels in shCTL (n=3) and shBMl1 (n=3) neurons by ELISA. […]

shBMI1 neurons [2] = assay: Confocal immunofluorescence for oligomeric amyloid (NU1) and Ab42 (PA3) in shBMI1 neurons treated with BSI (FIG. 3G); type: cell-based, human; details: BSI vs vehicle control
Text: as §1

sAD patients = details: tested and abandoned in 2014 {De Strooper; cited from earlier work
shBMI1 neurons [3] = type: cell-based, human
Text: FIG. 5 is a panel with pictures and graphs illustrating that BMI1 deficiency in neurons results in activation of MAPT, GSK3b and p53. FIG. 5A: Immunoblots for AD-related proteins in shCTL, shBMI1 and BMI1 overexpressing (BMI1 OE) neurons. Protein expression ratios were established using Ponceau staining and where expression in shCTL neurons was set as 1. FIG. 5B: Confocal analysis of F-Actin (phalloidin), amyloid (PA3), p-Tau (PHF1) and activated caspase-3 (Casp3a) in shBMI1 neurons treated with DMSO, β-secretase inhibitor (BSI), γ-secretase inhibitor (GSI) or y-secretase modulator (GSM). Quantification was established using shCTL neurons set as 1. Scale bar: 40 μm.
Human embryonic stem cells were differentiated into cortical neurons. The differentiation protocol was based on a previous study (Espuny-Camacho, I., et al., Pyramidal neurons derived from human pluripotent stem cells integrate efficiently into mouse brain circuits in vivo. Neuron 77, 440-456, (2013)). However, the Noggin agonist LDN193189 was used to reduce recombinant Noggin concentration. The H9 (WiCell™) and HUES9 (Harvard Stem Cell Institute) cell lines were dissociated using Accutase™ (Innovative Cell Technology #AT-104) and platted on growth factor reduced Matrigel™ (Corning #356231) in PeproGrow™ hES cell media (PeproTech #BM-hESC) supplemented with ROCK™ inhibitor (Y-27632; 10 μM, Cayman Chemical #10005583). Upon 70% of confluency, the media was changed to DDM supplemented with B27 (1× final), Noggin (10 ng/ml, PeproTech #120-10C) and LDN193189 (0.5 μM; Sigma #SML0559). The medium was changed every day. After 16 days of differentiation, the medium was changed to DDM/B27 and replenished every day. At day 24, neural progenitors were manually detached from the plate and mixed with lentiviral supernatant for 30 min at 37° C. Infected neural progenitors were subsequently mixed in DDM/B27 supplemented with ROCK™ inhibitor (Y-27632; 10 μM) and platted on growth factor reduced Matrigel™ coated plates or chamber slides (LabTek™ #154534). Five days after the dissociation/infection, half of the medium was changed for Neurobasal™ A media supplemented with B27 (1× final) and changed again every three days. For 3D cultures, neural progenitors at day 24 were mixed with ice-cold growth factor reduced Matrigel™ (1:20 dilution) and plated onto 8-well chamber slides. After 30 min of incubation at 37° C., fresh Neurobasal™ A/B27 were added.
Sequence-specific oligonucleotides stretch shRNA designed to target the BMI-1 ORF (accession No.: BC011652): were synthetized. Oligo#1 (nt 1061-1081) 5′-CCTAATACT TTCCAGATTGAT-3′ (SEQ ID NO: 3) and oligoScramble (nt 573-591) 5′-GGTACTTCATTGATGCCAC-3′ (SEQ ID NO: 4) were used in this study. These sequences are followed by the loop sequence (TTCAAGAGA) (SEQ ID NO: 5) and finally the reverse complements of the targeting sequences. The double stranded shRNA sequences were cloned downstream of the H1P promoter of the H1 P-UbqC-HygroEGFP plasmid using Age1, SmaI, and XbaI cloning sites. The shRNA-expressing lentiviral plasmids were cotransfected with plasmids pCMVdR8.9 and pHCMV-G into 293FT packaging cells using Lipofectamin™ (Invitrogen) according to the manufacturers instructions. Viral containing media were collected, filtered, and concentrated by ultracentrifugation. Viral titers were measured by serial dilution on 293T cells followed by microscopic analysis 48 hr later. For viral transduction, lentiviral vectors were added to dissociated cells prior to plating. […]

[4] = BMI1-deficient neurons, working concentration BSI 1 μM, GSI 0.5 μM, GSM 30 μM, FIG. 5B

amyloid immuno-reactivity (PA3) / C99/amyloid accumulation (shBMI1 neurons [3]; [4])	p-Tau (PHF1) immuno-reactivity / intensity (shBMI1 neurons [3]; [4])	most pathological parameters (shBMI1 neurons [3]; BMI1-deficient neurons, working concentration GSI 0.5 μM, GSM 30 μM, FIG. 5B)	SMILES	amyloid (Ab42) concentration by ELISA (shBMI1 neurons [1])	amyloid immunoreactivity (antibodies against Ab42) (shBMI1 neurons [2])	neuro-toxicity in sAD patients (sAD patients)	toxicity for BMI1-knockdown human cortical neurons (shBMI1 neurons [3])	p-Tau localization (shBMI1 neurons [3]; BMI1-deficient neurons, GSI 0.5 μM, FIG. 5B)
			C[C@@H](NC(=O)c1cc(C(=O)N[C@@H](Cc2ccccc2)[C@H](O)CNC2CC2)cc(N(C)S(C)(=O)=O)c1)c1ccccc1 [BSI, BSI-IV]	normalized	highly reduced			
reached saturation levels	reduced	did not improve	C[C@H](NC(=O)Cc1cc(F)cc(F)c1)C(=O)N[C@H](C(=O)OC(C)(C)C)c1ccccc1 [GSI, DAPT]			high	toxic	re-localization of p-Tau to the neuronal soma suggested tangle formation
